# Laboratory results from US3948899A, “α-Cyanobenzylpiperazines and a process for producing the same” (Fuji Chemical Industry Co., Ltd., priority 1973, dated 1976).
# Counter-ions that a name gives are not always drawn.
# What was measured:
# [1] = tested on: mongrel adult dogs; experiment: Effects on the work done by the left ventricle (thoractomized anesthetized dogs, i.v.); format: in vivo, dog
# Experimental: (§1) All experiments were conducted on male and female thoractomized mongrel adult dogs weighing about 10 Kg under anesthesia with pentobarbital sodium.
# (§2) Arterial blood pressure was measured by pressure transducer (Nippon Koden MPU-0.5) connected with the cannula inserted from exposed carotid artery into aorta. Aortic blood flow was determined by means of electromagnetic flow meter (Nippon Koden MF-5) mounted at an origin of aorta. Coronary sinus out flow and coronary sinus oxygen tension were assessed by means of electromagnetic flow meter (Nippon Koden MF-5) and Po2 Macro electrode (Beckmann Moder 160-C), respectively, using Morawitz cannulization technique. Heart rate was measured by cardiotachometer (Nippon Koden RT-2) synchronized with systolic blood pressure of aorta.
# The work done by the left ventricle is calculated according to the following equation: […]
# [2] = tested on: mongrel adult dogs; experiment: Effects on coronary sinus oxygen tension (thoractomized anesthetized dogs, i.v.); format: in vivo, dog
# Experimental: as §1, §2
# [3] = Acute toxicity (LD50; per os, mice); format: in vivo; conditions: mouse, in vivo, po, dd-0train male mice
# Experimental: 7. Acute Toxicity (See Table 7) Acute toxicity (LD50; per os, mice) was measured in dd-0train male mice.
# [4] = tested on: mongrel adult dogs; experiment: Effects on arterial mean blood pressure (thoractomized anesthetized dogs, i.v.); format: in vivo, dog
# Experimental: as §1, §2
smiles,measurement,setting,value
"COc1ccc(CN2CCNCC2)c(OC)c1OC [Vastarel F, 2,3,4 -trimethoxybenzylpiperazine dihydrochloride]","Changes(%) of basal values, work of left ventricle","[1]; i.v. 0.2 mg/Kg, 1 min",-1.0%
same,"Changes(%) of basal values, work of left ventricle","[1]; i.v. 0.2 mg/Kg, 5 min",-2.5%
same,"Changes(%) of basal values, work of left ventricle","[1]; i.v. 0.2 mg/Kg, 10 min",-1.5%
same,"Changes(%) of basal values, work of left ventricle","[1]; i.v. 0.2 mg/Kg, 15 min",-1.0%
same,"Changes(%) of basal values, work of left ventricle","[1]; i.v. 0.2 mg/Kg, 20 min",0%
same,"Changes(%) of basal values, work of left ventricle","[1]; i.v. 0.2 mg/Kg, 25 min",0%
same,"Changes(%) of basal values, work of left ventricle","[1]; i.v. 0.2 mg/Kg, 30 min",0%
same,"Changes(%) of basal values, work of left ventricle","[1]; i.v. 0.2 mg/Kg, imm.",-2.5%
same,"Changes(%) of basal values, work of left ventricle","[1]; i.v. 0.6 mg/Kg, 1 min",-2.0%
same,"Changes(%) of basal values, work of left ventricle","[1]; i.v. 0.6 mg/Kg, 5 min",-1.5%
same,"Changes(%) of basal values, work of left ventricle","[1]; i.v. 0.6 mg/Kg, 10 min",-2.0%
same,"Changes(%) of basal values, work of left ventricle","[1]; i.v. 0.6 mg/Kg, 15 min",-2.0%
same,"Changes(%) of basal values, work of left ventricle","[1]; i.v. 0.6 mg/Kg, 20 min",-1.0%
same,"Changes(%) of basal values, work of left ventricle","[1]; i.v. 0.6 mg/Kg, 25 min",-1.5%
same,"Changes(%) of basal values, work of left ventricle","[1]; i.v. 0.6 mg/Kg, 30 min",0%
same,"Changes(%) of basal values, work of left ventricle","[1]; i.v. 0.6 mg/Kg, imm.",-4.5%
same,"Changes(%) of basal values, work of left ventricle","[1]; i.v. 2.0 mg/Kg, 1 min",-35.0%
same,"Changes(%) of basal values, work of left ventricle","[1]; i.v. 2.0 mg/Kg, 5 min",+9.0%
same,"Changes(%) of basal values, work of left ventricle","[1]; i.v. 2.0 mg/Kg, 10 min",+21.5%
same,"Changes(%) of basal values, work of left ventricle","[1]; i.v. 2.0 mg/Kg, 15 min",+10.0%
same,"Changes(%) of basal values, work of left ventricle","[1]; i.v. 2.0 mg/Kg, 20 min",+4.0%
same,"Changes(%) of basal values, work of left ventricle","[1]; i.v. 2.0 mg/Kg, 25 min",+3.5%
same,"Changes(%) of basal values, work of left ventricle","[1]; i.v. 2.0 mg/Kg, 30 min",+3.0%
same,"Changes(%) of basal values, work of left ventricle","[1]; i.v. 2.0 mg/Kg, imm.",-90.0%
same,"Changes(%) of basal values, coronary sinus oxygen tension","[2]; i.v. 0.2 mg/Kg, 1 min",+1.0%
same,"Changes(%) of basal values, coronary sinus oxygen tension","[2]; i.v. 0.2 mg/Kg, 5 min",0%
same,"Changes(%) of basal values, coronary sinus oxygen tension","[2]; i.v. 0.2 mg/Kg, 10 min",0%
same,"Changes(%) of basal values, coronary sinus oxygen tension","[2]; i.v. 0.2 mg/Kg, 15 min",0%
same,"Changes(%) of basal values, coronary sinus oxygen tension","[2]; i.v. 0.2 mg/Kg, 20 min",0%
same,"Changes(%) of basal values, coronary sinus oxygen tension","[2]; i.v. 0.2 mg/Kg, 25 min",0%
same,"Changes(%) of basal values, coronary sinus oxygen tension","[2]; i.v. 0.2 mg/Kg, 30 min",0%
same,"Changes(%) of basal values, coronary sinus oxygen tension","[2]; i.v. 0.2 mg/Kg, imm.",+3.0%
same,"Changes(%) of basal values, coronary sinus oxygen tension","[2]; i.v. 0.6 mg/Kg, 1 min",+5.5%
same,"Changes(%) of basal values, coronary sinus oxygen tension","[2]; i.v. 0.6 mg/Kg, 5 min",+1.0%
same,"Changes(%) of basal values, coronary sinus oxygen tension","[2]; i.v. 0.6 mg/Kg, 10 min",0%
same,"Changes(%) of basal values, coronary sinus oxygen tension","[2]; i.v. 0.6 mg/Kg, 15 min",0%
same,"Changes(%) of basal values, coronary sinus oxygen tension","[2]; i.v. 0.6 mg/Kg, 20 min",0%
same,"Changes(%) of basal values, coronary sinus oxygen tension","[2]; i.v. 0.6 mg/Kg, 25 min",0%
same,"Changes(%) of basal values, coronary sinus oxygen tension","[2]; i.v. 0.6 mg/Kg, 30 min",0%
same,"Changes(%) of basal values, coronary sinus oxygen tension","[2]; i.v. 0.6 mg/Kg, imm.",+9.0%
same,"Changes(%) of basal values, coronary sinus oxygen tension","[2]; i.v. 2.0 mg/Kg, 1 min",+1.5%
same,"Changes(%) of basal values, coronary sinus oxygen tension","[2]; i.v. 2.0 mg/Kg, 5 min",+2.0%
same,"Changes(%) of basal values, coronary sinus oxygen tension","[2]; i.v. 2.0 mg/Kg, 10 min",+5.0%
same,"Changes(%) of basal values, coronary sinus oxygen tension","[2]; i.v. 2.0 mg/Kg, 15 min",+5.0%
same,"Changes(%) of basal values, coronary sinus oxygen tension","[2]; i.v. 2.0 mg/Kg, 20 min",+3.0%
same,"Changes(%) of basal values, coronary sinus oxygen tension","[2]; i.v. 2.0 mg/Kg, 25 min",+0.5%
same,"Changes(%) of basal values, coronary sinus oxygen tension","[2]; i.v. 2.0 mg/Kg, 30 min",0%
same,"Changes(%) of basal values, coronary sinus oxygen tension","[2]; i.v. 2.0 mg/Kg, imm.",+3.0%
same,Increase in oxygen tension,"[2]; i.v., between 5 and 20 minutes",up to 5%
same,LD50,[3],960 mg/kg
same,"Changes(%) of basal values, arterial mean blood pressure","[4]; i.v. 0.2 mg/Kg, 1 min",-1.0%
same,"Changes(%) of basal values, arterial mean blood pressure","[4]; i.v. 0.2 mg/Kg, 5 min",-2.0%
same,"Changes(%) of basal values, arterial mean blood pressure","[4]; i.v. 0.2 mg/Kg, 10 min",-1.5%
same,"Changes(%) of basal values, arterial mean blood pressure","[4]; i.v. 0.2 mg/Kg, 15 min",-1.0%
same,"Changes(%) of basal values, arterial mean blood pressure","[4]; i.v. 0.2 mg/Kg, 20 min",0%
same,"Changes(%) of basal values, arterial mean blood pressure","[4]; i.v. 0.2 mg/Kg, 25 min",0%
same,"Changes(%) of basal values, arterial mean blood pressure","[4]; i.v. 0.2 mg/Kg, 30 min",0%
same,"Changes(%) of basal values, arterial mean blood pressure","[4]; i.v. 0.2 mg/Kg, imm.",-3.0%
same,"Changes(%) of basal values, arterial mean blood pressure","[4]; i.v. 0.6 mg/Kg, 1 min",-2.0%
same,"Changes(%) of basal values, arterial mean blood pressure","[4]; i.v. 0.6 mg/Kg, 5 min",-1.5%
same,"Changes(%) of basal values, arterial mean blood pressure","[4]; i.v. 0.6 mg/Kg, 10 min",-1.0%
same,"Changes(%) of basal values, arterial mean blood pressure","[4]; i.v. 0.6 mg/Kg, 15 min",-1.0%
same,"Changes(%) of basal values, arterial mean blood pressure","[4]; i.v. 0.6 mg/Kg, 20 min",0%
same,"Changes(%) of basal values, arterial mean blood pressure","[4]; i.v. 0.6 mg/Kg, 25 min",0%
same,"Changes(%) of basal values, arterial mean blood pressure","[4]; i.v. 0.6 mg/Kg, 30 min",0%
same,"Changes(%) of basal values, arterial mean blood pressure","[4]; i.v. 0.6 mg/Kg, imm.",-6.0%
same,"Changes(%) of basal values, arterial mean blood pressure","[4]; i.v. 2.0 mg/Kg, 1 min",-35.0%
same,"Changes(%) of basal values, arterial mean blood pressure","[4]; i.v. 2.0 mg/Kg, 5 min",-2.0%
same,"Changes(%) of basal values, arterial mean blood pressure","[4]; i.v. 2.0 mg/Kg, 10 min",-1.0%
same,"Changes(%) of basal values, arterial mean blood pressure","[4]; i.v. 2.0 mg/Kg, 15 min",0%
same,"Changes(%) of basal values, arterial mean blood pressure","[4]; i.v. 2.0 mg/Kg, 20 min",-1.0%
same,"Changes(%) of basal values, arterial mean blood pressure","[4]; i.v. 2.0 mg/Kg, 25 min",-2.0%
same,"Changes(%) of basal values, arterial mean blood pressure","[4]; i.v. 2.0 mg/Kg, 30 min",-2.0%
same,"Changes(%) of basal values, arterial mean blood pressure","[4]; i.v. 2.0 mg/Kg, imm.",-55.0%
